Measurements: a melting point compilation (Tetko et al.; mined from patent text by program, amines drawn as free bases though some values may be those of a salt)

melting point | SMILES
103 to 105 °C | CCC(N)=C(C(C)=O)C(=O)N(CCN(C)C)c1ccccc1
204 to 206 °C | Clc1cccc(Nc2ncnc3[nH]nc(NCc4cccnc4)c23)c1
215 to 217 °C | Cc1nc2c(N)nc3ccc(OCc4ccccc4)cc3c2n1CCCCCS(C)(=O)=O
172 °C | Clc1ccc(/C=C/c2ccc[nH]2)cc1
241 to 243 °C | Cn1c(=O)c(Oc2ccccc2F)cc2cnc(N)nc21
159 to 161 °C | O=C1NCC2(CCN(Cc3ccccc3)CC2)O1
222 to 223 °C | CCc1c2s[nH]c(=O)c2c(=O)n2ccc(Cl)cc12
186 to 194 °C | CCc1cc(NCc2ccc3oc(-c4ccccc4C#N)c(Br)c3c2)n2nccc2n1
64 to 66 °C | C=CCCN(c1ccc(OC)cc1)S(=O)(=O)c1c(F)c(F)c(F)c(F)c1F
115 to 118 °C | CC(=O)NC1(c2ccccc2)CCN(CC[C@@H](c2ccc(Cl)c(Cl)c2)[C@@H](O)c2ccnn2-c2ccccc2)CC1 (racemic)
220 to 222 °C | Fc1ccc(Nc2ncnc3cnc(OC4CCOCC4)nc23)cc1Cl
149 to 150 °C | CCOC(=O)CNC(=O)[C@H](CC(C)C)NC(=O)[C@@H]1CCCN1C(=O)OCc1ccccc1
168 to 170 °C | CC(C)(C)c1cc(-c2c[nH]c(=S)[nH]2)cc(C(C)(C)C)c1O
118 °C | CC(O)c1ccccc1-c1ccc(C(=O)N2Cc3ccc(C(=O)NCc4cccnc4)n3Cc3ccccc32)cc1 (single isomer, unassigned; (-))
255 to 258 °C | NC(=O)c1sc2ncnc(-c3cccc(NC(=O)Cc4ccccc4)c3)c2c1N
85 to 89 °C | CC(C)N(N=O)c1ccc(N(N=O)c2ccccc2)cc1
139 to 146 °C | O=C1CCCN1CCCNCc1ccc(-c2cc3ncnc(Nc4ccc5[nH]ccc5c4)c3s2)cc1
242 to 244 °C | COC(=O)NN=Cc1cnc2ccccc2n1
110 to 111 °C | Clc1cccc(-c2cnn(-c3ccccn3)c2)c1
153 to 154 °C | CN1CCN(c2cccc3ccc(Nc4ccc([N+](=O)[O-])cc4[N+](=O)[O-])cc23)CC1
142 to 150 °C | CN(C)S(=O)(=O)n1cc(C(=O)c2c(Cl)cc(Cl)cc2Cl)nc1C#N
> 250 °C | N#Cc1[nH]c(Br)c(Br)c1-c1ccc(Cl)cc1

melting point | SMILES
206 to 207 °C | CC(=O)Nc1ccc(C(=O)C=CC(=O)O)cc1
220 to 225 °C | O=C(O)c1cc(C(F)(F)F)cc(-c2ccc(Cl)c(C(=O)NCC34CC5CC(CC(C5)C3)C4)c2)n1
95 to 97 °C | CCCCC(CC)Cn1c2cc(Br)ccc2c2ccc(Br)cc21 (stereo not given)
164 to 167 °C | COc1ccc2c(c1)c(Cc1cc(=O)n(-c3cccc(Br)c3)[nH]1)c(C)n2C(=O)c1ccc(Cl)cc1
138 to 139 °C | NCC1c2ccccc2CCN1CC(O)CN1CCOCC1 (stereo not given)
150 °C | CN(C)C=NS(=O)(=O)c1cc(CCNC(=O)C(F)(F)F)ccc1-c1ccco1
53 to 55 °C | CCCCC1OC(=O)c2cc([N+](=O)[O-])ccc21 (stereo not given)
51 to 53 °C | CN(C1CC(C)(C)NC(C)(C)C1)C1CC(C)(C)NC(C)(C)C1
193 to 194 °C | Cc1cn(C2CC(O)C(CO[Si](C)(C)C(C)(C)C)O2)c(=O)[nH]c1=O (stereo not given)
100 to 101 °C | CC(C)(C)OC(=O)N1CCC(COc2ccc(N)cc2)CC1
149 to 150 °C | Cn1cc(-c2cccc(N3Cc4cc(C(C)(C)C)ccc4C3=O)c2CO)nc(Nc2cccnc2)c1=O
89 to 93 °C | CN(C)CCCNS(=O)(=O)c1cccc(N)c1
156 °C | CC(C)c1ccc(N(Cc2ccc(O)cc2)C(=O)C2CCCc3ccccc32)cc1 (stereo not given)
238 to 242 °C | CSCC[C@H](NC(=O)[C@@H]1CCC(=O)N1)C(=O)N[C@@H](C)C(=O)N[C@H](C(=O)N[C@@H](CCCCN)C(=O)O)C(C)C
77 to 79 °C | CC(C)(C)CNc1cc(Cl)nc(Cl)n1
60 to 62 °C | COc1nscc1C#N
167 to 169 °C | CC(C)(CCCOc1ccc(CCC(=O)c2ccc(-c3ccc(C(F)(F)F)cc3)s2)c(Cl)c1Cl)C(=O)O
124 to 127 °C | O=C(NC1CCC(CNc2nc3c(s2)CCOc2ccccc2-3)CC1)OCc1ccccc1 (stereo not given)
128 to 130 °C | N#Cc1c(-c2ccccc2)c(Cl)n2c1CNCC2
171 to 172 °C | CCc1nn(C2CCCC2)c2cc(C(=O)Nc3c(Cl)ncnc3Cl)ccc12
211 to 212 °C | COc1ccc(-c2nc(-c3ccccc3)nc(-c3ccccc3)n2)c(O)c1
114 to 116 °C | CC(=O)NCCCC(=O)c1ccc(Cl)cc1CCC(=O)OCC(N)=O

melting point | SMILES
124 to 127 °C | O=C(O)CCc1ccc(OCc2nc(-c3ccccc3)c(-c3ccccc3)o2)cc1
163 °C | CN1C(=O)C(C)(Cc2ccccc2)N(C)C(=O)C1=Cc1cccnc1C#N (stereo not given)
119 to 130 °C | CNC(=O)CN1CCc2cc(Nc3ncc(Cl)c(Nc4c(F)cccc4C(=O)NC)n3)c(OC)cc2CC1
142 to 144 °C | CC(=O)OC1=CC(NC(=O)CCc2ccc(Cl)cc2Cl)C(=O)N(C)c2ccccc21 (stereo not given)
141 to 142 °C | Clc1ccc(CN2CC=C(/C=C/c3ccccc3)CC2)cc1
225 to 227 °C | COc1cc2nc(N3CCN(C(=O)C=Cc4cccc(C(F)(F)F)c4)CC3)nc(N)c2cc1OC
210 to 211 °C | Fc1cc(I)c2nc[nH]c2c1
215 to 216 °C | Cc1nc(-c2ccc(Cl)cc2)c(CC(=O)O)o1
146 to 147 °C | CCCCCc1c(/C=C/C(=O)O)oc2cc(OC)ccc12
112 to 114 °C | CCOC(=O)C1=C(COCc2nnn(CCNc3ccc(S(=O)(=O)N4CCOCC4)cn3)n2)NC(C)=C(C(=O)OC)C1c1cccc(Cl)c1Cl (stereo not given)
105 to 107 °C | CC(C)c1ccc(S(=O)(=O)c2ccccc2)c(C(C)C)c1
204 to 205 °C | CCCCc1ncc(/C=C(\Cc2cccs2)C(=O)O)n1Cc1ccc(C(=O)O)c(C(=O)O)c1
212 to 213 °C | COc1cc2c3cc(OC)c(OC)cc3n(S(=O)(=O)c3ccccc3)c2cc1OC
227 to 229 °C | CCC(=O)c1cc2c(c(Cl)c1O)OC(C(=O)O)C2 (stereo not given)
48 to 51 °C | C=C(c1ccc(OC)c(C)c1)c1ccc(C)c(Br)c1
79 to 80 °C | Cc1ccc(CCCc2c(C(C)C)nc(C(C)C)c(CO)c2-c2ccc(F)cc2)cc1
67 to 69 °C | Cc1ccc(C2=CC(O)CN(C)C2)cc1 (stereo not given)
148 to 149 °C | CCOC(=O)c1cnn(-c2ccc(CBr)cc2)n1
110 °C | Cc1ccc(N)c(C(O)(C(F)(F)F)C(F)(F)F)c1
193 to 195 °C | CON=C(C)CC(C)(C)Cn1c(C)nc2c(N)nc3ccccc3c21
89 to 93 °C | COc1cc(OC)nc(C(C)(C#N)c2cccc(Cl)c2)n1 (stereo not given)
61 °C | CC(C)(CC(=O)O)C(Cl)CC(Cl)(Cl)C(F)(F)F (stereo not given)

SMILES | melting point
N#Cc1nn(-c2c(Cl)cc(C(F)(F)F)cc2Cl)c(Cl)c1C=C(Br)Br | 119 to 120 °C
CC1CCC2(C)C(=CCC3C4CC(O)C(=O)C4(C)CCC32)C1 (stereo not given) | 166 to 168 °C
COC[C@@H]1[C@@H](c2ccc(Cl)c(Cl)c2)C[C@@H]2CC[C@H]1N2C | 73 to 76 °C
COC(=O)C1CN(C)CCC1c1ccc(F)cc1 (stereo not given) | 88 to 89 °C
